Activity calls are given as the source filed them. How the calls were made is not given here.
Columns and labels:
[1] = Her2 expression suppression with viability readout – cell-based, AlphaScreen, CellTiter-Glo viability, dose response (AID 742); conditions: human cells, Her2 expression AlphaScreen; CTG viability; at 9.62 µM (top of the series)
[2] = test system: human cells, Her2 expression AlphaScreen; CTG viability; assay: as above; conditions: for EC50: viability, CellTiter-Glo

Structure (SMILES) | Her2 inhibition [1] | EC50 [2] [µM] | IC50 [2]
CCN1C(=O)CC(C(=O)Nc2ccc(F)cc2)SC1=Nc1ccc2c(c1)OCO2 (stereo not drawn) | -33.1% (inactive) | > 9.62 | –
CS(=O)(=O)c1nc(-c2ccccc2)cc(C(F)(F)F)n1 | – | > 9.62 | 9.06 µM
CCOc1cc(C(=O)NCCOC)ccc1OC | -7.59% (inactive) | > 9.62 | –
Cn1cnc2c1c(=O)[nH]c(=O)n2C | -20.9% (inactive) | > 9.62 | –
COCCCN1C(=O)C(O)=C(C(C)=O)C1c1cccc(F)c1 (stereo not drawn) | -2.16% (inactive) | > 9.62 | –
Cc1ccc(-n2nc(C)c3c2OC(N)=C(C#N)C3c2ccc(F)cc2)cc1 (stereo not drawn) | -1.17% (inactive) | > 9.62 | –
CCCc1cc(C(=O)Cc2ccc(F)cc2)c(O)cc1O | -30.2% (inactive) | > 9.62 | –
CCCCn1c(O)c(C(C)=NCCN2CCCCC2)c(=O)[nH]c1=O | -17.4% (inactive) | > 9.62 | –
CCc1ccc(-c2nc(CN3CCC(C(=O)N4CCN(c5ccccc5)CC4)CC3)c(C)o2)cc1 | -74% (inactive) | > 9.62 | –
CS(=O)c1nc(-c2ccc(Br)cc2)cc(-c2ccccc2)c1C#N (stereo not drawn) | 34% (inactive) | > 9.62 | –
C=CCn1c(=O)c2ccccc2n2c(SCc3cc(=O)n4ccsc4n3)nnc12 | -18.6% (inactive) | > 9.62 | –
c1ccc(Cc2nn3c(COc4ccccc4)nnc3s2)cc1 | -17.6% (inactive) | > 9.62 | –
O=S1(=O)Nc2c(ccc3cccnc23)-c2ccccc21 | 12.6% (inactive) | > 9.62 | –
CS(=O)(=O)c1nc(-c2cccs2)cc(C(F)(F)F)n1 | – | > 9.62 | 7.37 µM
CCOC(=O)Cn1nnnc1C(CC)N(Cc1cccs1)Cc1cc2ccc(OC)cc2[nH]c1=O (stereo not drawn) | 22.9% (inactive) | > 9.62 | –
Cc1cc(NC(=O)CNC(=O)C2CCCCC2)no1 | 12.1% (inactive) | > 9.62 | –
CC1(C)CC(=O)NC=C(c2ccccc2)C1 | 0.71% (inactive) | > 9.62 | –
CCOC(=O)c1c(NC(=O)CSc2n[nH]c(N)n2)sc(CC)c1C | -10.4% (inactive) | > 9.62 | –
CC1(C)CC(=O)C2=C(C1)OC1=C(C(=O)CC(C)(C)C1)C2c1ccc(O)cc1O | 10.8% (inactive) | > 9.62 | –
COc1cc(NS(=O)(=O)c2ccc(C)cc2)c2ncccc2c1 | 18.5% (inactive) | > 9.62 | –
O=C(O)CCc1nn2cc(-c3ccccc3)nc2[nH]c1=O | -26.9% (inactive) | > 9.62 | –

Structure (SMILES) | Her2 inhibition [1] | EC50 [2] [µM] | IC50 [2]
CCCCC(C(=O)O)C(C)CC(=O)Nc1cccc(C(=O)O)c1 (stereo not drawn) | -10.2% (inactive) | > 9.62 | –
Clc1ccc(COC(Cn2ccnc2)c2ccc(Cl)cc2Cl)c(Cl)c1 (stereo not drawn) | -0.43% (inactive) | > 9.62 | –
CCOC(=O)c1c(C)oc2c1c(C(c1ccncc1)N1CCOCC1)c(O)c1ccccc12 (stereo not drawn) | 23.5% (inactive) | > 9.62 | –
O=C(Nc1ccccc1NC(=O)NC1CCCCC1)NC1CCCCC1 | -1.72% (inactive) | > 9.62 | –
S=C1SCN(CCN2CCOCC2)CN1Cc1ccccc1 | -20.1% (inactive) | > 9.62 | –
Cc1cccc(Nc2nc(-c3ccccn3)cs2)n1 | 0.46% (inactive) | > 9.62 | –
C=C(C)COc1ccc(-c2n[nH]c(C)c2Oc2ccccc2OC)c(O)c1 | -8.71% (inactive) | > 9.62 | –
C[C@@]1(CO)[C@H](O)CC[C@@]2(C)[C@H]1CC[C@H]1C[C@@H]3C[C@@]12CC[C@]3(O)CO | 1.16% (inactive) | > 9.62 | –
CN(C)CCCN1c2ccccc2Sc2ccc(C(F)(F)F)cc21 | 0.74% (inactive) | > 9.62 | –
CCOC(=O)C(C(C)=O)c1c(Br)c(O)c(O)c2c(C(=O)c3ccc(C)cc3)coc12 (stereo not drawn) | 46.1% (inactive) | > 9.62 | –
COc1cccc(-c2nnn(CC(=O)O)n2)c1 | -1.29% (inactive) | > 9.62 | –
CCN(CC)c1ccc2c(c1)oc(=O)c1c(Cl)cc(=O)oc12 | -20.7% (inactive) | > 9.62 | –
CC(C)(C)NC(=O)CSc1ncnc2c1nnn2Cc1ccccc1Cl | -10.2% (inactive) | > 9.62 | –
COc1ccc(C(=O)c2no[n+]([O-])c2C(=O)c2ccc(OC)cc2)cc1 | -48.2% (inactive) | > 9.62 | –
c1cnc(-c2nnc3n2CCCCC3)cn1 | 5.42% (inactive) | > 9.62 | –
COC(=O)CC1=C(C(=O)OC)C(c2ccc3c(c2Cl)OCO3)C(C#N)=C(N)O1 (stereo not drawn) | -10.7% (inactive) | > 9.62 | –
O=S(=O)(CCSc1nc2ccccc2o1)c1nc2ccccc2s1 | -10.1% (inactive) | > 9.62 | –
Cc1nc2nc(-c3ccco3)nn2c(C)c1Cl | – | > 9.62 | 2.6 µM
O=C(CN1CCC(c2nc3ccccc3s2)CC1)NCc1cccs1 | -41.9% (inactive) | > 9.62 | –
Cc1nnc(SCc2nnc(-c3ccccc3Br)o2)n1-c1ccccc1 | -17.1% (inactive) | > 9.62 | –
CC(C)C(=O)N(Cc1cc2ccccc2[nH]c1=O)C(C)(C)C | -2.53% (inactive) | > 9.62 | –

Structure (SMILES) | Her2 inhibition [1] | EC50 [2] [µM] | IC50 [2]
N#CCCS(=O)(=O)c1nnnn1-c1ccccc1 | 3.51% (inactive) | > 9.62 | –
CCOc1ccc(-c2[nH]ncc2Oc2ccccc2OCC)c(O)c1 | 1.97% (inactive) | > 9.62 | –
CCOc1ccc(-c2nnn(CC(=O)c3cc(OC)ccc3OC)n2)cc1 | -22.6% (inactive) | > 9.62 | –
C=CCSC1=N/C(=C\C=C\c2ccco2)C(=O)S1 | 28.4% (inactive) | > 9.62 | –
CCCn1c(SCC(=O)Nc2cccc(C)n2)nnc1-c1ccco1 | -2.69% (inactive) | > 9.62 | –
O=C(NCCCc1ccccc1)c1ccncc1 | -8.4% (inactive) | > 9.62 | –
COc1ccc(C(=O)C(CN2CCCC2)c2ccccc2)cc1 (stereo not drawn) | – | > 9.62 | 8.95 µM
O=S(=O)(NCc1ccco1)c1cccc2cccnc12 | -18.5% (inactive) | > 9.62 | –
CCn1c(=O)c(C(=O)Nc2nc3ccccc3[nH]2)c(O)c2ccccc21 | 41.2% (inactive) | > 9.62 | –
O=C1C2=C(SCCS2)C(=O)N1CCCO | -25% (inactive) | > 9.62 | –
FC(F)(F)c1ccc(N2CCOCC2)c(Nc2nc3ccccc3n3cnnc23)c1 | -15.5% (inactive) | > 9.62 | –
CC1(C)CC(=O)C2(CC3=C(CC(C)(C)CC3=O)O2)C(=O)C1 | -2.95% (inactive) | > 9.62 | –
CCOc1ccccc1N(CC(=O)N1CCOCC1)S(=O)(=O)c1ccccc1 | 3.98% (inactive) | > 9.62 | –
CCOC(=O)C(NC(C)=O)(N1CCc2ccccc2C1)C(F)(F)F (stereo not drawn) | -13.1% (inactive) | > 9.62 | –
CC1CN=C(N(C(=O)Nc2ccccc2)c2ccc(S(=O)(=O)N3CCOCC3)cc2)S1 (stereo not drawn) | -5.35% (inactive) | > 9.62 | –
CC1(C)CCCC2=C1CC1C(=O)N(Cc3cccnc3)C(=O)C1C2 (stereo not drawn) | -13.3% (inactive) | > 9.62 | –
CCc1ccc2oc(-c3cc(N=Cc4cccc(OC)c4O)ccc3O)nc2c1 | 20.2% (inactive) | > 9.62 | –
Cc1c(C#N)c(N)c(C(=O)c2ccccc2)n1Cc1ccccc1 | -0.29% (inactive) | > 9.62 | –
Cn1ncnc2c(=O)n(C)c(=O)nc1-2 | – | < 0.024 | 2.24 µM (inactive)
Cc1ccc(CNC(=O)c2cc3c(-c4ccc(Cl)cc4)nn(C)c3s2)o1 | – | > 9.62 | 6.48 µM
O=S(=O)(CC(CN1CCCC1)N1CCCC1)c1ccc2ccccc2c1 (stereo not drawn) | – | > 9.62 | 7.29 µM

Structure (SMILES) | Her2 inhibition [1] | EC50 [2] [µM] | IC50 [2]
O=C(CSc1nc2cc(Cl)ccc2s1)c1ccco1 | – | > 9.62 | 5.09 µM
CCN1/C(=C/C(=O)c2ccco2)Sc2ccccc21 | – | > 9.62 | 3.63 µM
CN(C)CC(C(=O)c1ccccc1)c1ccccc1 (stereo not drawn) | – | > 9.62 | 8.84 µM
CS(=O)(=O)c1nc(-c2ccco2)cc(C(F)(F)F)n1 | – | > 9.62 | 9.15 µM
COC(=O)c1sccc1NC(=O)c1ccc(Cl)s1 | – | > 9.62 | 9 µM
O=S1(=O)C=C(Sc2nnc(-c3ccccc3)o2)c2ccccc21 | – | > 9.62 | 7.54 µM
Cn1c(C(C#N)C(=O)c2ccco2)nc2ccccc21 (stereo not drawn) | – | > 9.62 | 2.25 µM
Cc1ccc(-c2csc3ncnc(Sc4nnc(CN5CCCCCC5=O)o4)c23)cc1 | – | > 9.62 | 4.53 µM
O=S1(=O)C=C(Sc2nc3ccccc3s2)c2ccccc21 | – | > 9.62 | 5.63 µM
CCn1nc(-c2ccccc2)nc2c(=O)n(C)c(=O)nc1-2 | – | < 0.024 | 4.48 µM (inactive)
Nc1nnnn1/N=C/C(Br)=C/c1ccccc1 | – | > 9.62 | 3.58 µM
O=S(=O)(C/C(=C/CO)S(=O)(=O)c1ccccc1)c1ccccc1 | – | > 9.62 | 5.12 µM
CC(=O)c1sc2nc(-c3cccs3)cc(C(F)(F)F)c2c1N | – | > 9.62 | 9.32 µM
CSC1=N/C(=C\C=C\c2cccs2)C(=O)S1 | – | > 9.62 | 8.09 µM
COC(=O)/C(=C1/Oc2cc(C)oc(=O)c2S1)C(F)(F)F | – | < 0.024 | 3.78 µM (inactive)
O=S1(=O)C=C(Sc2nc3cc(Cl)ccc3o2)c2ccccc21 | – | > 9.62 | 9.25 µM
Cc1nn2c(-c3ccco3)nnc2c2ccccc12 | – | > 9.62 | 2.38 µM
CCn1nc(-c2cccs2)nc2c(=O)n(C)c(=O)nc1-2 | – | < 0.024 | 2.55 µM (inactive)
CCCn1c(NC(=O)c2ccco2)nc2ccccc21 | – | > 9.62 | 2.13 µM
Cc1nc(NC(=O)c2ccco2)sc1C(=O)Nc1ccc(Br)cc1 | – | > 9.62 | 1.49 µM
CCCCS(=O)(=O)/C=C\C=C/S(=O)(=O)CCCC | – | > 9.62 | 4.07 µM

From PubChem BioAssay AID742 (SRMLSC, 2007)
